Source: PMC13210772, “Dual FLT3/MAPK14 Proteolysis-Targeting Chimera (PROTAC) Induces Potent Acute Myeloid Leukemia Cell Death” (Pharmaceuticals, 2026)

Tests used:
Assay in all cases: NanoBRET CELLinib128
EPHB2 = target: T1, EPHB2 (Homo sapiens, UniProt P29323); assay type: binding; details: 1 µM; 100% no effect, 0% complete tracer displacement
T1 construct: Full-length kinase ORF (Promega, Madison, WI, USA) cloned in frame with a NanoLuc-vector was transfected into HEK293T cells; host or cells: HEK293T

CLK4 = CLK4 (Homo sapiens, UniProt Q9HAZ1); details: read-out: Tracer bound
IRAK1 = IRAK1 (Homo sapiens, UniProt P51617); details: read-out: Tracer bound
EPHB3 = target: T2, EPHB3 (Homo sapiens, UniProt P54753); assay type: binding; details: 100% no effect, 0% complete tracer displacement, read-out: Tracer bound
T2 construct: Full-length kinase ORF (Promega, Madison, WI, USA) cloned in frame with a NanoLuc-vector was transfected into HEK293T cells; host or cells: HEK293T

LTK = LTK (Homo sapiens, UniProt P29376); details: read-out: Tracer bound
DDR1 = DDR1 (Homo sapiens, UniProt Q08345); details: read-out: Tracer bound
STK35 = target: T3, STK35 (Homo sapiens, UniProt Q8TDR2); assay type: binding; details: 100% no effect, 0% complete tracer displacement, read-out: Tracer bound
T3 construct: Full-length kinase ORF (Promega, Madison, WI, USA) cloned in frame with a NanoLuc-vector was transfected into HEK293T cells; host or cells: HEK293T
Experimental: (§1) To get an impression about the binding strength of the PROTAC MA191 and the reference inhibitor MA68 to other kinases besides FLT3-ITD the binding on a kinase panel of further 128 representative protein kinases at 1 μM concentration was tested using the NanoBRET^TM cellular target engagement assay (CELLinib128 assay, CELLinib GmbH, Frankfurt, Germany). […] In none of the 128 kinases MA191 was able to displace the tracer (inhibitor) used by more than 50%, Table S1, Supplementary Information).
(§2) The CELLinib128 assay was performed by CELLinib GmbH, Frankfurt (Germany) as described previously. In brief: Full-length kinase ORF (Promega, Madison, WI, USA) cloned in frame with a NanoLuc-vector was transfected into HEK293T cells in Opti-MEM without phenol red (Life Technologies, Carlsbad, CA, USA) at a density of 2 × 10^5 cells/mL using FuGENE HD (Promega, E2312) and proteins were allowed to express for 20 h. For CDKs, where indicated below, an excess of an activator without an NLuc-fusion was cotransfected. […] The system was allowed to equilibrate at 37 °C for 2 h and 5% CO2 prior to BRET measurements. For PKCs, a chemical activator PMA was added in a final concentration of 1 µM was added together with test compounds and tracers (Promega, V1171). To measure BRET, NanoBRET^TM NanoGlo substrate + extracellular NanoLuc inhibitor (Promega, N2160) were added as per the manufacturer’s protocol, and filtered luminescence was measured (450 nm BP filter (donor) and 610 nm LP filter (acceptor)). For the 1-shot test compounds, data were normalized to the tracer control and the background control or control compound plateau and an average and SD were calculated. […] For the control compounds competitive displacement data were normalized to the tracer Ctrl and the background Ctrl and then plotted and fitted using GraphPad Prism 10 software using a normalized 3-parameter curve fit with the following equation: Y = 100/(1 + 10^X−LogIC50).

DCLK3 = target: T4, DCLK3 (Homo sapiens, UniProt Q9C098); assay type: binding; details: 100% no effect, 0% complete tracer displacement, read-out: Tracer bound
T4 construct: Full-length kinase ORF (Promega, Madison, WI, USA) cloned in frame with a NanoLuc-vector was transfected into HEK293T cells; host or cells: HEK293T
Experimental: as §1, §2

PRKAA2 = target: T5, PRKAA2 (Homo sapiens, UniProt P54646); assay type: binding; details: 100% no effect, 0% complete tracer displacement, read-out: Tracer bound
T5 construct: Full-length kinase ORF (Promega, Madison, WI, USA) cloned in frame with a NanoLuc-vector was transfected into HEK293T cells; host or cells: HEK293T
Experimental: as §1, §2

MAP4K3 = target: T6, MAP4K3 (Homo sapiens, UniProt Q8IVH8); assay type: binding; details: 1 µM; 100% no effect, 0% complete tracer displacement
T6 construct: Full-length kinase ORF (Promega, Madison, WI, USA) cloned in frame with a NanoLuc-vector was transfected into HEK293T cells; host or cells: HEK293T
Experimental: as §1, §2

LATS1 = target: T7, LATS1 (Homo sapiens, UniProt O95835); assay type: binding; details: 100% no effect, 0% complete tracer displacement, read-out: Tracer bound
T7 construct: Full-length kinase ORF (Promega, Madison, WI, USA) cloned in frame with a NanoLuc-vector was transfected into HEK293T cells; host or cells: HEK293T
Experimental: as §1, §2

RPS6KA2 = target: T8, RPS6KA2 (Homo sapiens, UniProt Q15349); assay type: binding; details: 100% no effect, 0% complete tracer displacement, read-out: Tracer bound
T8 construct: Full-length kinase ORF (Promega, Madison, WI, USA) cloned in frame with a NanoLuc-vector was transfected into HEK293T cells; host or cells: HEK293T
Experimental: as §1, §2

CSNK1G2 = target: T9, CSNK1G2 (Homo sapiens, UniProt P78368); assay type: binding; details: 1 µM; 100% no effect, 0% complete tracer displacement
T9 construct: Full-length kinase ORF (Promega, Madison, WI, USA) cloned in frame with a NanoLuc-vector was transfected into HEK293T cells; host or cells: HEK293T
Experimental: as §1, §2

CDK14-CCNY = target: T10, CDK14-CCNY (Homo sapiens, UniProt O94921); assay type: binding; details: 1 µM; 100% no effect, 0% complete tracer displacement
T10 construct: Full-length kinase ORF (Promega, Madison, WI, USA) cloned in frame with a NanoLuc-vector was transfected into HEK293T cells; host or cells: HEK293T
Experimental: as §1, §2

TNK2 = target: T11, TNK2 (Homo sapiens, UniProt Q07912); assay type: binding; details: 100% no effect, 0% complete tracer displacement, read-out: Tracer bound
T11 construct: Full-length kinase ORF (Promega, Madison, WI, USA) cloned in frame with a NanoLuc-vector; host or cells: HEK293T
Experimental: as §1, §2

CSNK2A2 = target: T12, CSNK2A2 (Homo sapiens, UniProt P19784); assay type: binding; details: 100% no effect, 0% complete tracer displacement, read-out: Tracer bound
T12 construct: Full-length kinase ORF (Promega, Madison, WI, USA) cloned in frame with a NanoLuc-vector was transfected into HEK293T cells; host or cells: HEK293T
Experimental: as §1, §2

RET = target: T13, RET (Homo sapiens, UniProt P07949); assay type: binding; details: 100% no effect, 0% complete tracer displacement, read-out: Tracer bound
T13 construct: Full-length kinase ORF (Promega, Madison, WI, USA) cloned in frame with a NanoLuc-vector was transfected into HEK293T cells; host or cells: HEK293T
Experimental: as §1, §2

PAK6 = target: T14, PAK6 (Homo sapiens, UniProt Q9NQU5); assay type: binding; details: 100% no effect, 0% complete tracer displacement, read-out: Tracer bound
T14 construct: Full-length kinase ORF (Promega, Madison, WI, USA) cloned in frame with a NanoLuc-vector was transfected into HEK293T cells; host or cells: HEK293T
Experimental: as §1, §2

MYLK3 = target: T15, MYLK3 (Homo sapiens, UniProt Q32MK0); assay type: binding; details: 100% no effect, 0% complete tracer displacement, read-out: Tracer bound
T15 construct: Full-length kinase ORF (Promega, Madison, WI, USA) cloned in frame with a NanoLuc-vector was transfected into HEK293T cells; host or cells: HEK293T
Experimental: as §1, §2

ERN1 = target: T16, ERN1 (Homo sapiens, UniProt O75460); assay type: binding; details: 100% no effect, 0% complete tracer displacement, read-out: Tracer bound
T16 construct: Full-length kinase ORF (Promega, Madison, WI, USA) cloned in frame with a NanoLuc-vector was transfected into HEK293T cells; host or cells: HEK293T
Experimental: as §1, §2

MAP4K2 = target: T17, MAP4K2 (Homo sapiens, UniProt Q12851); assay type: binding; details: 100% no effect, 0% complete tracer displacement, read-out: Tracer bound
T17 construct: Full-length kinase ORF (Promega, Madison, WI, USA) cloned in frame with a NanoLuc-vector was transfected into HEK293T cells; host or cells: HEK293T
Experimental: as §1, §2

JAK3 = target: T18, JAK3 (Homo sapiens, UniProt P52333); assay type: binding; details: 100% no effect, 0% complete tracer displacement, read-out: Tracer bound
T18 construct: Full-length kinase ORF (Promega, Madison, WI, USA) cloned in frame with a NanoLuc-vector was transfected into HEK293T cells; host or cells: HEK293T
Experimental: as §1, §2

LIMK2 = target: T19, LIMK2 (Homo sapiens, UniProt P53671); assay type: binding; details: 100% no effect, 0% complete tracer displacement, read-out: Tracer bound
T19 construct: Full-length kinase ORF (Promega, Madison, WI, USA) cloned in frame with a NanoLuc-vector was transfected into HEK293T cells; host or cells: HEK293T
Experimental: as §1, §2

WEE2 = target: T20, WEE2 (Homo sapiens, UniProt P0C1S8); assay type: binding; details: 100% no effect, 0% complete tracer displacement, read-out: Tracer bound
T20 construct: Full-length kinase ORF (Promega, Madison, WI, USA) cloned in frame with a NanoLuc-vector; host or cells: HEK293T
Experimental: as §1, §2

STK4 = target: T21, STK4 (Homo sapiens, UniProt Q13043); assay type: binding; details: 1 µM; 100% no effect, 0% complete tracer displacement
T21 construct: Full-length kinase ORF (Promega, Madison, WI, USA) cloned in frame with a NanoLuc-vector was transfected into HEK293T cells; host or cells: HEK293T
Experimental: as §1, §2

FGFR2 = target: T22, FGFR2 (Homo sapiens, UniProt P21802); assay type: binding; details: 100% no effect, 0% complete tracer displacement, read-out: Tracer bound
T22 construct: Full-length kinase ORF (Promega, Madison, WI, USA) cloned in frame with a NanoLuc-vector was transfected into HEK293T cells; host or cells: HEK293T
Experimental: as §1, §2

ULK3v1 = target: T23, ULK3v1 (Homo sapiens, UniProt Q6PHR2); assay type: binding; details: 1 µM; 100% no effect, 0% complete tracer displacement
T23 construct: Full-length kinase ORF (Promega, Madison, WI, USA) cloned in frame with a NanoLuc-vector; host or cells: HEK293T
Experimental: as §1, §2

MLTK = target: T24, MLTK (Homo sapiens, UniProt Q9NYL2); assay type: binding; details: 100% no effect, 0% complete tracer displacement, read-out: Tracer bound
T24 construct: Full-length kinase ORF (Promega, Madison, WI, USA) cloned in frame with a NanoLuc-vector was transfected into HEK293T cells; host or cells: HEK293T
Experimental: as §1, §2

EPHA6 = target: T25, EPHA6 (Homo sapiens, UniProt Q9UF33); assay type: binding; details: 100% no effect, 0% complete tracer displacement, read-out: Tracer bound
T25 construct: Full-length kinase ORF (Promega, Madison, WI, USA) cloned in frame with a NanoLuc-vector was transfected into HEK293T cells; host or cells: HEK293T
Experimental: as §1, §2

T6 sequence (Q8IVH8 whole entry): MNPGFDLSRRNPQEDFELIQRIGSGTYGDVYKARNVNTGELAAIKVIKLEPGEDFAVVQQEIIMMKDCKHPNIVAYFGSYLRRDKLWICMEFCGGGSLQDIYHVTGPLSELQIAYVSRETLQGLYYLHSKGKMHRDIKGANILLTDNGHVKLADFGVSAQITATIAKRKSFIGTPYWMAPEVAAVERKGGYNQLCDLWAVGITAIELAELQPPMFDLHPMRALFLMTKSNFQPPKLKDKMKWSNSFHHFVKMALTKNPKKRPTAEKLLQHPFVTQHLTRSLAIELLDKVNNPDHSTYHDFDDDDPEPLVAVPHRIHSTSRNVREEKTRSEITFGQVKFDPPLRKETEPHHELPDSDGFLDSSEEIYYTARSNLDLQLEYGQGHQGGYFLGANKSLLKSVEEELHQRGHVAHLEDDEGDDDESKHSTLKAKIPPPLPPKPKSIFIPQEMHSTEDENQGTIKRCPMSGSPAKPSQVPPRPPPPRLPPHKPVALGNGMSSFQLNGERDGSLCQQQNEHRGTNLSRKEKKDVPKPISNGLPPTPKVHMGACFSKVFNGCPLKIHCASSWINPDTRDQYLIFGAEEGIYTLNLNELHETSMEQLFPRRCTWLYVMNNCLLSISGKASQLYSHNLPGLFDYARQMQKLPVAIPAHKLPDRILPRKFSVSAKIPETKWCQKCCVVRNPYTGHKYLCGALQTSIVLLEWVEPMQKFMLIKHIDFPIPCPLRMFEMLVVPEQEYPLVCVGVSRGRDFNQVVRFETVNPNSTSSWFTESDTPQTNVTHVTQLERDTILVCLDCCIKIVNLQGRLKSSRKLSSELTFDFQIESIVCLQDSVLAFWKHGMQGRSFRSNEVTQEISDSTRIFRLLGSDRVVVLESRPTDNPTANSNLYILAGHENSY
T18 sequence (P52333 whole entry): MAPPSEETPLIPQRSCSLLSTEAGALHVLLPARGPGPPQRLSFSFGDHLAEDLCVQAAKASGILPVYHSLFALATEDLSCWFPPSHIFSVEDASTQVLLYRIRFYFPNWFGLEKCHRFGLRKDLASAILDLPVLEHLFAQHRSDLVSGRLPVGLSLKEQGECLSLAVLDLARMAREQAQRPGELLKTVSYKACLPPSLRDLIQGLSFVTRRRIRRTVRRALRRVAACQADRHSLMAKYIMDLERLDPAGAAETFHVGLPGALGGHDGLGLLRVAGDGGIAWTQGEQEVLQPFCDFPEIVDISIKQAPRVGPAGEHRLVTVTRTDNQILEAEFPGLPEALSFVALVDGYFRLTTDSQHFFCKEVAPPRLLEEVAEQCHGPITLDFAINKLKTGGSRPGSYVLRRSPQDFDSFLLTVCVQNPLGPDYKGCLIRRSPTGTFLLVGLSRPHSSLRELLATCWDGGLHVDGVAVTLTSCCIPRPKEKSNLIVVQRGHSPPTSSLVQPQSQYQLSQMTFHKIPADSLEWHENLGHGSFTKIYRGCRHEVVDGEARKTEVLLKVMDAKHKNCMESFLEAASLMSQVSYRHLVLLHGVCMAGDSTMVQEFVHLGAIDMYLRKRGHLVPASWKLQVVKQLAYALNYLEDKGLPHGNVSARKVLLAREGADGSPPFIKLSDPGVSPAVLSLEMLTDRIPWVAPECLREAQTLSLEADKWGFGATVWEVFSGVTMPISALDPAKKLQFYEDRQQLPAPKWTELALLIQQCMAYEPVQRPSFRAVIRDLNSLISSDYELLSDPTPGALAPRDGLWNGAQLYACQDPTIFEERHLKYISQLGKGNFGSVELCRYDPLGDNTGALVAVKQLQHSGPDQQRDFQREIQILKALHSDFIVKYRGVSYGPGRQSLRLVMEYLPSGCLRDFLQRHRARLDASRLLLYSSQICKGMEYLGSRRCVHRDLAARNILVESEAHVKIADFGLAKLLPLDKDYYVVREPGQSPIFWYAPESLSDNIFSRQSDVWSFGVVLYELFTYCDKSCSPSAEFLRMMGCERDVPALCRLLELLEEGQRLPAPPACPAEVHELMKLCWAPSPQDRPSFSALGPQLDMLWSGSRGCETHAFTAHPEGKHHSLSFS
T14 sequence (Q9NQU5 whole entry): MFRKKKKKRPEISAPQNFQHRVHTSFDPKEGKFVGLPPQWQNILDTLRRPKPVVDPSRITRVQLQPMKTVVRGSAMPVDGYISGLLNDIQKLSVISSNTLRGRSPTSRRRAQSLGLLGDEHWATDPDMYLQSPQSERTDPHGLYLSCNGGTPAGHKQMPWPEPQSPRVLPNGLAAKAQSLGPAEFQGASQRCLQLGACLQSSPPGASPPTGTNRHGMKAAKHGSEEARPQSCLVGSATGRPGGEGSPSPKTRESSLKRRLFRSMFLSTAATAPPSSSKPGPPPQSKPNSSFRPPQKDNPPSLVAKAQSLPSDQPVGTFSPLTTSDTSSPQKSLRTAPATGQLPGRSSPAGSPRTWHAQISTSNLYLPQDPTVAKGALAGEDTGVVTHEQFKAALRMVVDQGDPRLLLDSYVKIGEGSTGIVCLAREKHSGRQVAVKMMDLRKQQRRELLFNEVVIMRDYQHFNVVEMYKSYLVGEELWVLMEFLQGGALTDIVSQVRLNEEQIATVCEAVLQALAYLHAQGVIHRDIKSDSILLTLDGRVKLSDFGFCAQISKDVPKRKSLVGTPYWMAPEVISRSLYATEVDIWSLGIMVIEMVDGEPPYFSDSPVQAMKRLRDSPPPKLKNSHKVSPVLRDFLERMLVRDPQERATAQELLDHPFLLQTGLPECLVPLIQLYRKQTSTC
T23 sequence (Q6PHR2 whole entry): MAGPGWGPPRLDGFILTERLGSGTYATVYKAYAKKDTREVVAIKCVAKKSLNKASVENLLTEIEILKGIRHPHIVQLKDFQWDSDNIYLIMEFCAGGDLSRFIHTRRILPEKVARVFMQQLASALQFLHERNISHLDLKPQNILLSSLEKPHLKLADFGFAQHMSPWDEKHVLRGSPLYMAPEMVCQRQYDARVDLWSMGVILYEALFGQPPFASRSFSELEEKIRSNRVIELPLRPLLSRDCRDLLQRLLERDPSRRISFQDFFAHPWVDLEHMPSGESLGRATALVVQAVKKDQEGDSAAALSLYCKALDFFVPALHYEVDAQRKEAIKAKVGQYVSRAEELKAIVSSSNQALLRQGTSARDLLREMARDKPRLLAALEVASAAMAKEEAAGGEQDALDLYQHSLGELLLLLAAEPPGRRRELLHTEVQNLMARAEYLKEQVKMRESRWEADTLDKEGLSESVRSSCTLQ
T3 sequence (Q8TDR2 whole entry): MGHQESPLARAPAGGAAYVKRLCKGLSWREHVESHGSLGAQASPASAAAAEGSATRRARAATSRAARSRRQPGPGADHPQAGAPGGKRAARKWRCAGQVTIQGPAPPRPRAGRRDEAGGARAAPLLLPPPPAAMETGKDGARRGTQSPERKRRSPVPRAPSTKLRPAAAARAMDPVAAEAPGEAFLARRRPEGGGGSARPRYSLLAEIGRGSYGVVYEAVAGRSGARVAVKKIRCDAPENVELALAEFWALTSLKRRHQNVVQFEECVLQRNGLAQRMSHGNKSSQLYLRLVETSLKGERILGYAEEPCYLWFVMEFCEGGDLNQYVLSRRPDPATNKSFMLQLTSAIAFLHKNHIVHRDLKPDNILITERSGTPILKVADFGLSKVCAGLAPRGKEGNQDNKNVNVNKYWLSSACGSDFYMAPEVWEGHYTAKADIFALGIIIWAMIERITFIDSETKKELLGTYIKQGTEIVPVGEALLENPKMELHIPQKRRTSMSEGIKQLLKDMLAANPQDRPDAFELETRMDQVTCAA
T21 sequence (Q13043 whole entry): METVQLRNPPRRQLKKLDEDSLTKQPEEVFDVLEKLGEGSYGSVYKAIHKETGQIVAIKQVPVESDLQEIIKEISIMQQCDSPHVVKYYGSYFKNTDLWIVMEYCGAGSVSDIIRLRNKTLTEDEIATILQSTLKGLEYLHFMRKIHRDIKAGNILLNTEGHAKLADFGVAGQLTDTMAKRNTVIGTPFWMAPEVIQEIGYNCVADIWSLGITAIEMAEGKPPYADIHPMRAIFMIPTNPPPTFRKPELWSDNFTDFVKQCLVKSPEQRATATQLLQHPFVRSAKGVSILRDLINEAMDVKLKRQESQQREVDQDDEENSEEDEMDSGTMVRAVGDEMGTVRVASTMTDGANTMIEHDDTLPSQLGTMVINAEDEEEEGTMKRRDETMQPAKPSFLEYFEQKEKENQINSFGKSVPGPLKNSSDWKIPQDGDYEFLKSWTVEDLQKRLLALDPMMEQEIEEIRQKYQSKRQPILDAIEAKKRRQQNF
T4 sequence (Q9C098 whole entry): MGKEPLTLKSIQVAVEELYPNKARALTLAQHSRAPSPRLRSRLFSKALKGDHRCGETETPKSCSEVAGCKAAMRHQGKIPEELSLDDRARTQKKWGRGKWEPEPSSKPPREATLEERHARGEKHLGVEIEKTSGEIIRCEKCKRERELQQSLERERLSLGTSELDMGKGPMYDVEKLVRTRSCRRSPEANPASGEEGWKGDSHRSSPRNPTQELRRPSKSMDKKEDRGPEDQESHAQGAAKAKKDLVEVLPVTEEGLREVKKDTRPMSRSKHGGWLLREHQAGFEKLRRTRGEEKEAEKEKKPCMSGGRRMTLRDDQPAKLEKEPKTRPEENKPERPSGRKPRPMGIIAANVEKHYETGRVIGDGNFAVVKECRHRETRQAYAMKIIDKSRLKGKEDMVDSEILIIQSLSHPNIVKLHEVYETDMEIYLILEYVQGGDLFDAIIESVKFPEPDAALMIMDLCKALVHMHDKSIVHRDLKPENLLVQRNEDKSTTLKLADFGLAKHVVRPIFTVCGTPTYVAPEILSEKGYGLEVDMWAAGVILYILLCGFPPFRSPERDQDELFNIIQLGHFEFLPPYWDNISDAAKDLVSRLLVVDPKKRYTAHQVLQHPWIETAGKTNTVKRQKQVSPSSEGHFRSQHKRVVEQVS

## Cc1ncsc1-c1ccc([C@H](C)NC(=O)[C@@H]2C[C@@H](O)CN2C(=O)[C@@H](NC(=O)[C@H]2CC[C@H](C(=O)N3CCN(CCNC(=O)c4cc(Oc5ccc(NC(=O)Nc6cc(C(C)(C)C)on6)cc5)ccn4)CC3)CC2)C(C)(C)C)cc1 [MA191, 4-(4-(3-(5-(tert-Butyl)isoxazol-3-yl)ureido)phenoxy)-N-(2-(4-(trans-4-(((S)-1-((2S,4R)-4-hydroxy-2-(((S)-1-(4-(4-methylthiazol-5-yl)phenyl)ethyl)carbamoyl)pyrrolidin-1-yl)-3,3-dimethyl-1-oxobutan-2-yl)carbamoyl)cyclohexanecarbonyl)piperazin-1-yl)ethyl)picolinamide]
EPHB2
  Tracer bound: 120.0%
CLK4
  remaining activity at 1 µM: 100%
IRAK1
  remaining activity at 1 µM: 102%
EPHB3
  remaining activity at 1 µM: 120%
LTK
  remaining activity at 1 µM: 101%
DDR1
  remaining activity at 1 µM: 85.7%
STK35
  remaining activity at 1 µM: 95.8%
DCLK3
  remaining activity at 1 µM: 102%
PRKAA2
  remaining activity at 1 µM: 119%
MAP4K3
  Tracer bound: 91.1%
LATS1
  remaining activity at 1 µM: 97.8%
RPS6KA2
  remaining activity at 1 µM: 114%
CSNK1G2
  Tracer bound: 92.4%
CDK14-CCNY
  Tracer bound: 95.7%
TNK2
  remaining activity at 1 µM: 118%
CSNK2A2
  remaining activity at 1 µM: 114%
RET
  remaining activity at 1 µM: 83.5%
PAK6
  remaining activity at 1 µM: 120%
MYLK3
  remaining activity at 1 µM: 108%
ERN1
  remaining activity at 1 µM: 116%
MAP4K2
  remaining activity at 1 µM: 107%
JAK3
  remaining activity at 1 µM: 117%
LIMK2
  remaining activity at 1 µM: 105%
WEE2
  remaining activity at 1 µM: 99.3%
STK4
  Tracer bound: 102.0%
FGFR2
  remaining activity at 1 µM: 109%
ULK3v1
  Tracer bound: 107.8%
MLTK
  remaining activity at 1 µM: 54.8%
EPHA6
  remaining activity at 1 µM: 82.5%
